{"source": "patent US20220194945A1", "about": "“Imidazolopyridine Compounds For IRE1 Inhibition” (Optikira, LLC, priority 2019, published 2022)", "key": {"XBP1 splicing": {"test_system": "XBP1 splicing", "test": "Cellular XBP1 splicing assay", "format": "cell-based", "settings": "ARPE-19 cells stably expressing XBP1-nano-luciferase, thapsigargin 150 nM, 4 hour incubation", "procedure": "Cellular XBP1 Splicing Assay\nARPE-19 cells stably expressing XBP1 (a.a. 1-376) with nano-luciferase gene sequence linked so it is in frame when XBP1 is spliced, were cultured in F12 media, 10% FBS, 0.044% sodium bicarbonate, 150 μg/ml hygromycin B and seeded for assays at 5,000 cells in 384 well plates in culture media without hygromycin B and incubated at 37° C./5% CO2. After overnight incubation test compounds were added to the cell plate in a 10-point ½ log dilution series in duplicate (final DMSO concentration 0.117%). After further incubation of 30 minutes thapsigargin was added (final concentration 150 nM) and then another 4 hour incubation. A NanoLuc luciferase assay (Promega) was used according to the manufacturer's instructions to detect the luciferase and luminescence measured on a luminometer (EnVision, PerkinElmer). IC50 values calculated by fitting a sigmoidal curve to percent inhibition of control of compound concentration.\n(§1) In vitro assay data are for the inhibition of RNase activity of IRE1α. Cellular assay (IC50 data) are for the XBP1 splicing assay."}, "IRE1α": {"target": "T1, IRE1α (Homo sapiens, UniProt O75460)", "T1 construct": "purchased Signal Chem E31-11G", "T1 sequence (O75460 468-977 limits assumed)": "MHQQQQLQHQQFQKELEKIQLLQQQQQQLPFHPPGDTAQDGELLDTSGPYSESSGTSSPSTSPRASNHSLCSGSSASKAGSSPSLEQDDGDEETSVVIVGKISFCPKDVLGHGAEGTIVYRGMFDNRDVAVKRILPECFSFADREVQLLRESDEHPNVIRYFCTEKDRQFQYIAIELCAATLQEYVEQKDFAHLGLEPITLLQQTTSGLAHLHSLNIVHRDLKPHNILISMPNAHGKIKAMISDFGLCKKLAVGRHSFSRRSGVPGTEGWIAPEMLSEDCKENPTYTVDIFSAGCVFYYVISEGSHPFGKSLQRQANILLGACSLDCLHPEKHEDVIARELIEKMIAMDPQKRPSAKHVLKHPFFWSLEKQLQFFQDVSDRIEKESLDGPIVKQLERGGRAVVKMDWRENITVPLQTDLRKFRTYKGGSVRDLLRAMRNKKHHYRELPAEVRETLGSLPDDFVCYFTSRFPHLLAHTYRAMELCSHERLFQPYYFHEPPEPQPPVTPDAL", "test": "Biochemical assay: inhibition of RNase activity of IRE1α", "settings": "IRE1α kinase (E31-11G, Signal Chem) 0.325 nM, substrate 100 nM, 30 min pre-incubation, read-out: In vitro assay IC50", "procedure": "Biochemical Assay: Inhibition of RNase activity of IRE1α\nThe RNase reactions were performed in 384 well black ProxiPlate-384 Plus plates (PERKIN Elmer) using 50 mM Tris assay buffer with 0.5 mM MgCl2, 10 mM KCl, 0.03% Tween, 2 mM DTT and 1% DMSO. Test compounds were prepared on the day of assay and dispensed using D300 digital dispenser as a 10-point ½ log dilution series in duplicate, normalized to a final DMSO concentration of […]. Test compounds were pre-incubated for 30 min at room temperature with IRE1α kinase (E31-11G from Signal Chem) in 2.5 μL of assay buffer. Then 2.5 μl of assay buffer containing substrate (5′ Alexa Fluor 647-rCrArU rGrUrC rCrGrC rArGrC rGrCrArUrG-Iowa Black RQ quencher 3′) added, giving a final concentration of enzyme of 0.325 nM and of substrate of 100 nM. After 20 minutes incubation at room temperature the reactions were stopped by added 5 μL of 5M urea, incubated at room temperature for 10 minutes and fluorescence measured on a plate reader (EnVision, PerkinElmer) IC50 values calculated by fitting a sigmoidal curve to percent inhibition of control versus compound concentration.\nas §1"}}, "note": "pIC50: −log10 of the molar value.", "data": [{"smiles": "CC(C)c1nc(-c2ccc(NS(=O)(=O)c3ccccc3Cl)c(F)c2)c2c(N)ncc([C@H]3CC[C@@H](N)CC3)n12", "note": "[Example 1, N-(4-(8-Amino-5-((1s,4s)-4-aminocyclohexyl)-3-isopropylimidazo[1,5-a]pyrazin-1-yl)-2-fluorophenyl)-2-chlorobenzenesulfonamide]", "values": [{"measurement": "pIC50", "setting": "XBP1 splicing; Homo sapiens", "result": 6.29}, {"measurement": "pIC50", "setting": "IRE1α", "result": 6.54}]}, {"smiles": "CC(C)c1nc(-c2ccc(NS(=O)(=O)c3ccccc3Cl)c(F)c2)c2c(N)ncc([C@H]3CC[C@H](N)CC3)n12", "note": "[Example 2, N-(4-(8-Amino-5-((1r,4r)-4-aminocyclohexyl)-3-isopropylimidazo[1,5-a]pyrazin-1-yl)-2-fluorophenyl)-2-chlorobenzenesulfonamide]", "values": [{"measurement": "pIC50", "setting": "XBP1 splicing; Homo sapiens", "result": 7.82}, {"measurement": "pIC50", "setting": "IRE1α", "result": 7.82}]}, {"smiles": "CC(C)c1nc(-c2ccc(NS(=O)(=O)c3ccccc3Cl)c(F)c2)c2c(N)ncc([C@H]3CC[C@@H](NC4COC4)CC3)n12", "note": "[Example 3, N-(4-(8-Amino-3-isopropyl-5-((1s,4s)-4-(oxetan-3-ylamino)cyclohexyl)imidazo[1,5-a]pyrazin-1-yl)-2-fluorophenyl)-2-chlorobenzenesulfonamide]", "values": [{"measurement": "pIC50", "setting": "XBP1 splicing; Homo sapiens", "result": 6.52}, {"measurement": "pIC50", "setting": "IRE1α", "result": 6.55}]}, {"smiles": "CC(C)c1nc(-c2ccc(NS(=O)(=O)c3ccccc3Cl)c(F)c2)c2c(N)ncc([C@H]3CC[C@H](NC4COC4)CC3)n12", "note": "[Example 4, N-(4-(8-Amino-3-isopropyl-5-((1r,4r)-4-(oxetan-3-ylamino)cyclohexyl)imidazo[1,5-a]pyrazin-1-yl)-2-fluorophenyl)-2-chlorobenzene sulfonamide]", "values": [{"measurement": "pIC50", "setting": "XBP1 splicing", "result": 8.30}, {"measurement": "pIC50", "setting": "IRE1α", "result": 8.19}]}, {"smiles": "CC(C)c1nc(-c2ccc(NS(=O)(=O)c3ccccc3F)c(F)c2)c2c(N)ncc(C3=CCC(NC4COC4)CC3)n12", "note": "(centres unmarked) [Example 6, N-(4-(8-Amino-3-isopropyl-5-(4-(oxetan-3-ylamino)cyclohex-1-en-1-yl)imidazo[1,5-a]pyrazin-1-yl)-2-fluorophenyl)-2-fluorobenzenesulfonamide]", "values": [{"measurement": "pIC50", "setting": "XBP1 splicing; Homo sapiens", "result": 7.01}, {"measurement": "pIC50", "setting": "IRE1α", "result": 6.82}]}, {"smiles": "CC(C)c1nc(-c2cc(F)c(NS(=O)(=O)c3ccccc3F)cc2F)c2c(N)ncc(C3=CCC(NC4COC4)CC3)n12", "note": "(centres unmarked) [Example 7, N-(4-(8-Amino-3-isopropyl-5-(4-(oxetan-3-ylamino)cyclohex-1-en-1-yl)imidazo[1,5-a]pyrazin-1-yl)-2,5-difluorophenyl)-2-fluorobenzenesulfonamide]", "values": [{"measurement": "pIC50", "setting": "XBP1 splicing; Homo sapiens", "result": 6.27}, {"measurement": "pIC50", "setting": "IRE1α", "result": 6.82}]}, {"smiles": "CC(C)c1nc(-c2cc(F)c(NS(=O)(=O)c3ccccc3Cl)cc2F)c2c(N)ncc(C3=CCC(NC4COC4)CC3)n12", "note": "(centres unmarked) [Example 8, N-(4-(8-Amino-3-isopropyl-5-(4-(oxetan-3-ylamino)cyclohex-1-en-1-yl)imidazo[1,5-a]pyrazin-1-yl)-2,5-difluorophenyl)-2-chlorobenzenesulfonamide]", "values": [{"measurement": "pIC50", "setting": "XBP1 splicing; Homo sapiens", "result": 6.77}, {"measurement": "pIC50", "setting": "IRE1α", "result": 6.96}]}, {"smiles": "CC(C)c1nc(-c2ccc(NS(=O)(=O)c3ccccc3F)c(F)c2Cl)c2c(N)ncc(C3=CCC(NC4COC4)CC3)n12", "note": "(centres unmarked) [Example 9, N-(4-(8-Amino-3-isopropyl-5-(4-(oxetan-3-ylamino)cyclohex-1-en-1-yl)imidazo[1,5-a]pyrazin-1-yl)-3-chloro-2-fluorophenyl)-2-fluorobenzenesulfonamide]", "values": [{"measurement": "pIC50", "setting": "XBP1 splicing; Homo sapiens", "result": 6.12}, {"measurement": "pIC50", "setting": "IRE1α", "result": 7.16}]}, {"smiles": "CC(C)c1nc(-c2cnc(NS(=O)(=O)c3ccccc3Cl)c(F)c2)c2c(N)ncc(C3=CCC(NC4COC4)CC3)n12", "note": "(centres unmarked) [Example 10, N-(5-(8-Amino-3-isopropyl-5-(4-(oxetan-3-ylamino)cyclohex-1-en-1-yl)imidazo[1,5-a]pyrazin-1-yl)-3-fluoropyridin-2-yl)-2-chlorobenzenesulfonamide]", "values": [{"measurement": "pIC50", "setting": "XBP1 splicing; Homo sapiens", "result": 5.11}, {"measurement": "pIC50", "setting": "IRE1α", "result": 7.21}]}, {"smiles": "COc1ccc(S(=O)(=O)Nc2ccc(-c3nc(C(C)C)n4c(C5=CCC(NC6COC6)CC5)cnc(N)c34)cc2F)cn1", "note": "(centres unmarked) [Example 11, N-(4-(8-Amino-3-isopropyl-5-(4-(oxetan-3-ylamino)cyclohex-1-en-1-yl)imidazo[1,5-a]pyrazin-1-yl)-2-fluorophenyl)-6-methoxypyridine-3-sulfonamide]", "values": [{"measurement": "pIC50", "setting": "XBP1 splicing; Homo sapiens", "result": 5.51}, {"measurement": "pIC50", "setting": "IRE1α", "result": 6.38}]}, {"smiles": "CC(C)c1nc(-c2ccc(NS(=O)(=O)c3ccc(C(F)(F)F)nc3)c(F)c2)c2c(N)ncc(C3=CCC(NC4COC4)CC3)n12", "note": "(centres unmarked) [Example 12, N-(4-(8-Amino-3-isopropyl-5-(4-(oxetan-3-ylamino)cyclohex-1-en-1-yl)imidazo[1,5-a]pyrazin-1-yl)-2-fluorophenyl)-6-(trifluoromethyl)pyridine-3-sulfonamide]", "values": [{"measurement": "pIC50", "setting": "XBP1 splicing; Homo sapiens", "result": 5.18}, {"measurement": "pIC50", "setting": "IRE1α", "result": 6.85}]}, {"smiles": "Cc1cncc(S(=O)(=O)Nc2ccc(-c3nc(C(C)C)n4c(C5=CCC(NC6COC6)CC5)cnc(N)c34)cc2F)c1", "note": "(centres unmarked) [Example 13, N-(4-(8-Amino-3-isopropyl-5-(4-(oxetan-3-ylamino)cyclohex-1-en-1-yl)imidazo[1,5-a]pyrazin-1-yl)-2-fluorophenyl)-5-methylpyridine-3-sulfonamide]", "values": [{"measurement": "pIC50", "setting": "XBP1 splicing; Homo sapiens", "result": 5.19}, {"measurement": "pIC50", "setting": "IRE1α", "result": 6.44}]}, {"smiles": "CC(C)c1nc(-c2ccc(NS(=O)(=O)c3ccccn3)c(F)c2)c2c(N)ncc(C3=CCC(NC4COC4)CC3)n12", "note": "(centres unmarked) [Example 14, N-(4-(8-Amino-3-isopropyl-5-(4-(oxetan-3-ylamino)cyclohex-1-en-1-yl)imidazo[1,5-a]pyrazin-1-yl)-2-fluorophenyl)pyridine-2-sulfonamide]", "values": [{"measurement": "pIC50", "setting": "XBP1 splicing; Homo sapiens", "result": 5.27}]}, {"smiles": "Cc1nc(S(=O)(=O)Nc2ccc(-c3nc(C(C)C)n4c(C5=CCC(NC6COC6)CC5)cnc(N)c34)cc2F)cs1", "note": "(centres unmarked) [Example 15, N-(4-(8-Amino-3-isopropyl-5-(4-(oxetan-3-ylamino)cyclohex-1-en-1-yl)imidazo[1,5-a]pyrazin-1-yl)-2-fluorophenyl)-2-methylthiazole-4-sulfonamide]", "values": [{"measurement": "pIC50", "setting": "XBP1 splicing; Homo sapiens", "result": 5.19}, {"measurement": "pIC50", "setting": "IRE1α", "result": 6.32}]}, {"smiles": "CC(C)c1nc(-c2ccc(NS(=O)(=O)c3ccccc3Cl)c(F)c2)c2c(N)ncc(C3=CCC(NCCS(C)(=O)=O)CC3)n12", "note": "(centres unmarked) [Example 16, N-(4-(8-Amino-3-isopropyl-5-(4-((2-(methylsulfonyl)ethyl)amino)cyclohex-1-en-1-yl)imidazo[1,5-a]pyrazin-1-yl)-2-fluorophenyl)-2-chlorobenzenesulfonamide]", "values": [{"measurement": "pIC50", "setting": "XBP1 splicing; Homo sapiens", "result": 6.96}, {"measurement": "pIC50", "setting": "IRE1α", "result": 7.96}]}, {"smiles": "Cc1nc(CS(=O)(=O)Nc2ccc(-c3nc(C(C)C)n4c(C5=CCC(N)CC5)cnc(N)c34)cc2F)cs1", "note": "(centres unmarked) [Example 17, N-(4-(8-Amino-5-(4-aminocyclohex-1-en-1-yl)-3-isopropylimidazo[1,5-a]pyrazin-1-yl)-2-fluorophenyl)-1-(2-methylthiazol-4-yl)methanesulfonamide]", "values": [{"measurement": "pIC50", "setting": "XBP1 splicing; Homo sapiens", "result": 5.13}, {"measurement": "pIC50", "setting": "IRE1α", "result": 7.40}]}, {"smiles": "CC(C)c1nc(-c2ccc(NS(=O)(=O)c3ccccc3Cl)c(F)c2)c2c(N)ncc(C3=CCC(N4CCOCC4)CC3)n12", "note": "(centres unmarked) [Example 18, N-(4-(8-Amino-3-isopropyl-5-(4-morpholinocyclohex-1-en-1-yl)imidazo[1,5-a]pyrazin-1-yl)-2-fluorophenyl)-2-chlorobenzenesulfonamide]", "values": [{"measurement": "pIC50", "setting": "XBP1 splicing; Homo sapiens", "result": 7.07}, {"measurement": "pIC50", "setting": "IRE1α", "result": 7.09}]}, {"smiles": "COCCNC1CC=C(c2cnc(N)c3c(-c4ccc(NS(=O)(=O)c5ccccc5Cl)c(F)c4)nc(C(C)C)n23)CC1", "note": "(centres unmarked) [Example 19, N-(4-(8-amino-3-isopropyl-5-(4-((2-methoxyethyl)amino)cyclohex-1-en-1-yl)imidazo[1,5-a]pyrazin-1-yl)-2-fluorophenyl)-2-chlorobenzenesulfonamide]", "values": [{"measurement": "pIC50", "setting": "XBP1 splicing; Homo sapiens", "result": 7.39}, {"measurement": "pIC50", "setting": "IRE1α", "result": 7.36}]}, {"smiles": "COc1nc(NS(=O)(=O)c2ccccc2Cl)ccc1-c1nc(C(C)C)n2c(C3=CCC(NC4COC4)CC3)cnc(N)c12", "note": "(centres unmarked) [Example 20, N-(5-(8-amino-3-isopropyl-5-(4-(oxetan-3-ylamino)cyclohex-1-en-1-yl)imidazo[1,5-a]pyrazin-1-yl)-6-methoxypyridin-2-yl)-2-chlorobenzenesulfonamide]", "values": [{"measurement": "pIC50", "setting": "XBP1 splicing; Homo sapiens", "result": "< 5.00"}, {"measurement": "pIC50", "setting": "IRE1α", "result": "< 6.00"}]}, {"smiles": "Cc1nc(NS(=O)(=O)c2ccccc2Cl)ccc1-c1nc(C(C)C)n2c(C3=CCC(NC4COC4)CC3)cnc(N)c12", "note": "(centres unmarked) [Example 21, N-(5-(8-amino-3-isopropyl-5-(4-(oxetan-3-ylamino)cyclohex-1-en-1-yl)imidazo[1,5-a]pyrazin-1-yl)-6-methylpyridin-2-yl)-2-chlorobenzenesulfonamide]", "values": [{"measurement": "pIC50", "setting": "XBP1 splicing; Homo sapiens", "result": 5.21}, {"measurement": "pIC50", "setting": "IRE1α", "result": "< 6.00"}]}, {"smiles": "CC(C)c1nc(-c2ccc(NS(=O)(=O)Cc3ccccc3Cl)c(F)c2)c2c(N)ncc(C3=CCC(N(C)C)CC3)n12", "note": "(centres unmarked) [Example 22]", "values": [{"measurement": "pIC50", "setting": "XBP1 splicing; Homo sapiens", "result": 8.77}, {"measurement": "pIC50", "setting": "IRE1α", "result": 8.82}]}]}
